Reference: patent US20080313748A1, “Transgenic Non-Human Animals Comprising the Human Udp-Glucuronosyltransferase 1A (Ugt1a) Gene Locus and Methods of Using Them” (priority 2004, published 2008)
“And” between values parts separate entries of the source, which are not always exact repeats. Equal values may be shown once. “Also recorded” adds a separate entry of the source. Read-outs that look alike come from different tables or passages of the source.

How the values were obtained:
β-estradiol UGT activity [1] = test: β-estradiol UGT activity in intestinal microsomes from PCN and TCDD treated Tg-UGT1c mice; format: in vivo, mouse; details: for Induction of β-estradiol glucuronidation: large intestine microsomes, Tg-UGT1c mice
Protocol: (§1) Microsomal Protein Isolation from Transgenic Mouse Tissues.
(§2) Reactions were terminated by the addition of 100 μl of methanol followed by centrifugation at top speed for 15 minutes. A 100 μl sample of the quenched reaction was spotted onto pre-adsorbent area of the TLC plate and develop in n-butanol/acetone/acetic acid/water (35:35:10:20) to achieve separation. ^14C-Labeled glucuronides were visualized with a STORM 820™ PhosphorImager (Molecular Dynamics/Amersham Biosciences). Silica gel in regions corresponding to the glucuronide bands were then scraped from the TLC plates, radioactivity measured by liquid scintillation counting, and specific catalytic activities were calculated in picomoles of glucuronide formed/mg of protein/min.
(§3) Values are the mean±S.E.M from triplicate experiments.

β-estradiol UGT activity [2] = test: β-estradiol UGT activity in intestinal microsomes from PCN treated wild type mice; format: in vivo, mouse; details: WT mice
Protocol: as §1, §2, §3

mouse Cyp3a11 = test: Cyp3a11 RT-PCR in primary hepatocytes from Tg-UGT1c mice; details: primary hepatocytes treated with PCN
[3] = tested on: UGT1A gene transcripts (human UGT1 locus); test: Isoform-specific RT-PCR of UGT1A gene transcripts in tissues of treated Tg-UGT1c mice; format: in vivo, mouse; details: for UGT1A1 RNA induction / UGT1A4 RNA / UGT1A6 RNA induction / UGT1A gene transcript induction: RT-PCR; for UGT1A gene transcript induction: small and large intestine, i.p. 3 days
Protocol: Analysis of UGT1 gene expression patterns by reverse transcription-PCR: For RNA isolation from transgenic and wild type (WT) mouse tissues, the tissues from three animals were combined as described in the methods that outline the preparation of microsomal proteins. After pulverizing in liquid nitrogen, approximately 100 mg of tissue was homogenized in 1 ml of TRIzol™ solution, and the RNA extracted following the manufacturer's instructions. For each reverse transcription reaction, 2 μg of total RNA was denatured by heating and cDNA synthesized in 20 μl using the Omniscript RT™ kit (Qiagen) according to the manufacturer's instructions. From this reaction, 2 μl of the cDNA reaction was employed in each PCR reaction. Each PCR reaction contained 0.2 μM of mouse β-actin primers, 0.4 μM of each of the UGT1A specific oligonucleotide primer pair (11;15;50), and 15 μl HOTSTART MASTERMIX™ (Qiagen) in a 30 μl reaction. For UGT1A1, UGT1A3, UGT1A4, UGT1A5, UGT1A6, UGT1A7, UGT1A9 and UGT1A10 the polymerase was activated at 95° C. for 15 minutes followed by 30 cycles of 95° C. for 30 sec, 63° C. for 30 sec, and 72° C. for 45 sec, and a final extension at 72° C. for seven minutes. For UGT1A8 PCR amplification, the polymerase was activated at 95° C. for 15 min followed by 30 cycles of 95° C. for 30 sec, 58° C. for 30 sec, and 72° C. for 45 sec, and a final extension at 72° C. for seven minutes. Analysis of expressed RNA included an antisense oligonucleotide specific for the common region that encoded exon 2, while all of the sense primers encoded a highly specific segment of each exon 1 sequence that allowed for the unique identification of each UGT1A RNA. PCR reactions were carried out in a PerkinElmer Life Sciences GENEAMP™ DNA thermocycler PCR system. Ten microliters of each PCR product was resolved on a 1.5% agarose gel containing 1 μg/ml ethidium bromide and photographed using Polaroid 665 positive/negative film (Polaroid, Cambridge, Mass.).
(§4) For both TCDD and PCN, the administration was by the intraperitoneal route, and each mouse was treated every 24 hours over a three day period. Tissues from three mice were then pooled and pulverized under liquid nitrogen, and samples used for microsomal preparation as well as for the isolation of total RNA.
(§5) Three Tg-UGT^1c or wild type (WT) mice were treated by intraperitoneal injection every 24 hours with either DMSO, TCDD (16 μg/kg) or PCN (10 mg/kg) for 3 days. After 72 hours, the small intestines from each treatment group were combined and the large intestines from each treatment group were combined and the tissues pulverized under liquid nitrogen. A sample of each tissue was then used to prepare microsomes or to isolate total RNA. FIG. 4A: Western blot analysis of small and large intestinal microsomal protein using UGT1A1-, UGT1A4- or UGT1A6 specific antibodies. Included as control is a sample of each protein generated from the expression of cDNAs in stably transfected HEK293 cells. FIG. 4B: RNA prepared from the same samples of tissue were used in RT-PCR studies and the isoform specific products identified in ethidium bromide stained agarose gels.
Induction of the UGT1 locus in liver by PCN and TCDD. […] Wild type and Tg-UGT^1c mice were treated every 24 hours with TCDD (16 μg/kg) or PCN (10 mg/kg) by intraperitoneal injection for 3 days, and the livers from three animals per group combined and used to prepare microsomes or to isolate total RNA. FIG. 6A: Samples of liver microsomal protein (10 μg) was separated by SDS-polyacrylamide gel electrophoresis, and immunoblot analysis performed using UGT1A1-, UGT1A4 or UGT1A6-antibodies. FIG. 6B: Total liver RNA (4 μg) was used in reverse transcription reactions followed by PCR analysis using isozyme-specific oligonucleotides.

UGT1A1 = tested on: UGT1A1
Protocol: (§6) Immunoblot Analysis. All Western blots were performed using NuPAGE Bis-Tris polyacrylamide gels as outlined by the supplier (Invitrogen, Carlsbad, Calif.). Protein was heated at 70° C. for 10 min in loading buffer and resolved in 4-12% Bis-Tris gels under denaturing conditions (50 mM MOPS, 50 mM Tris-base, pH 7.7, 0.1% SDS, 1 mM EDTA) prior to transferring the proteins to polyvinylidene difluoride membrane using a semidry transfer system (Norvex, England). The membrane was blocked with 5% nonfat dry milk in 10 mM Tris-HCl, pH7.4 containing 0.15 M NaCl and 0.05% Tween 20 (Tris-buffered saline) for 1 h at room temperature, followed by incubation with primary antibodies (mouse anti-human UGT1A1, UGT1A4 or UGT1A6) in Tris-buffered saline overnight at 4° C. Membranes were washed and exposed to horseradish peroxidase-conjugated secondary antibodies for 1 h at room temperature. Each membrane was again washed and the conjugated horseradish peroxidase was detected using the ECL plus Western blotting detection system (Amersham) and the proteins detected following exposure to X-ray film.

human UGT1A6 = details: for UGT1A6 protein regulation: small and large intestine
From the text: (§7) Microsomal Protein Isolation from Transgenic Mouse Tissues. Using three animals per group, the liver, small and large intestinal tissues were collected from Tg-UGT1 and wild type mice. For the small and large intestine, the tissue was dissected open lengthwise and the luminal surface gently rinsed in 1.15% KCl before freezing on dry ice. Tissue samples from each treatment group were combined and frozen in liquid nitrogen in a porcelain mortar and pulverized under liquid nitrogen. A sample of the pulverized tissue was added to 5 volumes of 1.15% ice cold KCl and the tissue homogenized using a motorized glass-teflon homogenizer. The tissue homogenate was first centrifuged at 2,000×g for 10 min at 4° C. and the supernatant was collected. The supernatant was then centrifuged at 9,000×g for 10 min at 4° C. and this resulting supernatant centrifuged at 100,000×g for 60 min at 4° C. The pellet was resuspended in buffer (50 mM Tris-HCl pH 7.4, 10 mM MgCl2, 1 mM PMSF) and the protein concentration determined by the Bradford method.
as §6, §4, §5
(§8) Induction of the UGT1 locus in liver by PCN and TCDD. […] Wild type and Tg-UGT^1c mice were treated every 24 hours with TCDD (16 μg/kg) or PCN (10 mg/kg) by intraperitoneal injection for 3 days, and the livers from three animals per group combined and used to prepare microsomes or to isolate total RNA.

human UGT1A4 = details: for UGT1A4 protein induction: small and large intestine
From the text: as §7, §6, §4, §5, §8

human UGT1A1 = details: for UGT1A1 protein induction: small and large intestinal microsomes, TCDD 16 μg/kg or PCN
From the text: as §7, §6, §4, §5, §8

[4] = tested on: UGT1A gene transcripts (human UGT1 locus); test: Isoform-specific RT-PCR of UGT1A gene transcripts in tissues of treated Tg-UGT1c mice; format: in vivo, mouse; details: liver and small intestine, UGT1+/- mice treated with TCDD
mouse Cyp1a1 = test: Cyp1a1 Western blot in primary hepatocytes from Tg-UGT1c mice; format: cell-based
From the text: Isolation and treatment of mouse transgenic primary hepatocytes. […] Mice were anesthetized by isoflurane inhalation.
Control hepatocyte cultures contained only DMSO (D).

[5] = Tg-UGT1c mice, i.p. every 24 h for 3 days
[6] = liver microsomes, Tg-UGT1c mice, i.p. every 24 h for 3 days

SMILES	Induction of β-estradiol glucuronidation (β-estradiol UGT activity [1])	UGT1A1 RNA induction ([3]; liver, Tg-UGT1c mice)	UGT1A4 RNA ([3]; liver, Tg-UGT1c mice)	UGT1A6 RNA induction ([3]; liver, Tg-UGT1c mice)	Expression of UGT1A1, UGT1A3, UGT1A4, UGT1A6 and UGT1A9 gene transcripts ([3]; liver, Tg-UGT1c mice)	UGT1A gene transcript induction ([3]; Tg-UGT1c mice)	UGT1A6 protein regulation (human UGT1A6; [5])	UGT1A4 protein induction (human UGT1A4; [5])	UGT1A1 protein induction (human UGT1A1; [5])	also measured
CC(=O)[C@H]1[C@H](C#N)C[C@H]2[C@@H]3CC=C4C[C@@H](O)CC[C@]4(C)[C@H]3CC[C@@]21C [PCN, Pregnenolone-16α-carbonitrile]	induced β-estradiol glucuronidation significantly	significant induction	increase	induced	induce expression of each of these genes	induction of all of the UGT1A gene transcripts	predominantly regulated only in large intestine	inducible in small and large intestine	inducible	β-estradiol glucuronidation activity, induced level over induced level in WT mice (β-estradiol UGT activity [1]; small intestine microsomes, PCN treated Tg-UGT1c mice vs PCN treated WT mice): ~10 fold; Induction of β-estradiol glucuronidation (β-estradiol UGT activity [2]; large intestine microsomes): induced β-estradiol glucuronidation significantly; Induction of UGT activity (β-estradiol) (β-estradiol UGT activity [2]; small intestine microsomes): induced a minimal amount of UGT activity; Cyp3a11 mRNA induction (mouse Cyp3a11): induction; UGT1A1 induction, hepatocytes cultured in dexamethasone (UGT1A1): significant induction; Microsomal UGT1A6 protein induction (human UGT1A6; mouse, in vivo, ip): induction; Microsomal UGT1A4 protein induction (human UGT1A4; mouse, in vivo, ip): induction; Microsomal UGT1A1 protein induction (human UGT1A1; mouse, in vivo, ip): induction
Clc1cc2c(cc1Cl)Oc1cc(Cl)c(Cl)cc1O2 [TCDD, 2,3,7,8-Tetrachlorodibenzo-p-dioxin]	most significant induction	significant induction	increase	induced	induce expression of each of these genes	induction of all of the UGT1A gene transcripts	predominantly regulated only in large intestine	inducible in small and large intestine	inducible	Expression of 1A1 and 1A6 [4]: elevated expression; UGT1A10 induction ([3]; liver, Tg-UGT1c mice): induce; also recorded: significantly induced; Regulation of UGT1A5, UGT1A7 and UGT1A8 ([3]; liver, Tg-UGT1 mice): not regulated; Mouse Cyp1a1 induction (mouse Cyp1a1; TCDD 72 hours): induction; Synergistic induction of Cyp1a1 in presence of glucocorticoids (mouse Cyp1a1; TCDD with 0.1 μM dexamethasone): did not observe a synergistic induction; UGT1A1 induction in presence of dexamethasone over the levels obtained only with TCDD treatment (UGT1A1; primary hepatocytes cultured in 0.1 μM dexamethasone and treated with TCDD): 10 fold and > 10 fold; UGT1A1 induction (UGT1A1; primary hepatocytes, compound alone, TCDD 10 nM 72 hours, PCN 10 μM, dexamethasone 0.1 μM): induction; Microsomal UGT1A6 protein induction (human UGT1A6; [6]): induction; Microsomal UGT1A4 protein induction (human UGT1A4; [6]): induction; Microsomal UGT1A1 protein induction (human UGT1A1; [6]): induction
